This test has as its system P388 leukemia ip, CD2F1 mice, survival T/C. Description: NCI In Vivo Anticancer Drug Screen. Data for tumor model P388 Leukemia (intraperitoneal) in CD2F1 (CDF1) mice. Particulars: endpoint: median survival time, higher = longer survival. The method, boiled down: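 Mice carrying the transplanted tumor received test compound or vehicle. Survival was recorded in each group, and the value is the treated-group measurement divided by that of the vehicle-treated control group.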

Where [1] appears, read: dose: 50.0 mg/kg/injection, schedule: Q01DX005 (ip), vehicle: Klucel (hydroxypropylcellulose) (HPC).
The mark [2] stands for this setting: dose: 50.0 mg/kg/injection, schedule: Q01DX005 (ip), vehicle: saline with Tween-80.
The mark [3] stands for this setting: dose: 50.0 mg/kg/injection, schedule: Q01DX005 (ip), vehicle: saline.
Where [4] appears, read: dose: 50.0 mg/kg/injection, schedule: Q01DX009 (ip), vehicle: saline.
The mark [5] stands for this setting: dose: 100.0 mg/kg/injection, schedule: Q01DX009 (ip), vehicle: saline.
[6] abbreviates: dose: 60.0 mg/kg/injection, schedule: Q01DX005 (ip), vehicle: saline with Tween-80.
Where [7] appears, read: dose: 120.0 mg/kg/injection, schedule: Q01DX005 (ip), vehicle: saline with Tween-80.
Where [8] appears, read: dose: 240.0 mg/kg/injection, schedule: Q01DX005 (ip), vehicle: saline with Tween-80.

Values joined by “and” are separate entries in the source; they are usually repeats but may differ in a detail not shown here. Equal values may be shown once. Toxic doses and inconclusive results are not listed.

Consider `CCCCOc1ccc2nccc(N/N=C/c3ccc(OC)c4ccccc34)c2c1`, for which the T/C reads like this: (dose: 12.5 mg/kg/injection, schedule: Q01DX005 (ip), vehicle: Klucel (hydroxypropylcellulose) (HPC)) 88 % of control; (dose: 25.0 mg/kg/injection, schedule: Q01DX005 (ip), vehicle: Klucel (hydroxypropylcellulose) (HPC)) 88 % of control; under setting [1], 92 % of control and 94 % of control.
Regarding `Cc1ccc(S(=O)(=O)CCC(=O)c2ccc([N+](=O)[O-])cc2)cc1`, the T/C is 96 % of control under setting [1]; 96 % of control (dose: 100.0 mg/kg/injection, schedule: Q01DX005 (ip), vehicle: Klucel (hydroxypropylcellulose) (HPC)); 96 % of control (dose: 200.0 mg/kg/injection, schedule: Q01DX005 (ip), vehicle: Klucel (hydroxypropylcellulose) (HPC)).
As to `CC1(C)NC(=O)NC(=O)C1Br` (stereo not given), the T/C was 99 % of control under setting [2]; 102 % of control (dose: 100.0 mg/kg/injection, schedule: Q01DX005 (ip), vehicle: saline with Tween-80); 103 % of control (dose: 200.0 mg/kg/injection, schedule: Q01DX005 (ip), vehicle: saline with Tween-80).
Turning to `CC(C)[C@@H]1CC[C@@H](C)C[C@H]1N`, the T/C reads like this: (dose: 12.5 mg/kg/injection, schedule: Q01DX005 (ip), vehicle: saline) 107 % of control; (dose: 25.0 mg/kg/injection, schedule: Q01DX005 (ip), vehicle: saline) 98 % of control; under setting [2], 113 % of control; under setting [3], 100 % of control.
Regarding `O=C1c2ccccc2C(=O)c2c(NCCNCCO)ccc(O)c21`, the T/C was 118 % of control and 122 % of control (dose: 1.25 mg/kg/injection, schedule: Q01DX009 (ip), vehicle: acid diluted with saline); 216 % of control (dose: 2.5 mg/kg/injection, schedule: Q01DX009 (ip), vehicle: acid diluted with saline); 110 % of control (dose: 3.12 mg/kg/injection, schedule: Q04DX002 (ip), vehicle: water); 258 % of control (dose: 5.0 mg/kg/injection, schedule: Q01DX005 (ip), vehicle: saline); 119 % of control (dose: 5.0 mg/kg/injection, schedule: Q01DX005 (iv), vehicle: saline); 274 % of control (dose: 5.0 mg/kg/injection, schedule: Q01DX009 (ip), vehicle: acid diluted with saline). Moreover, the T/C is 177 % of control (dose: 5.0 mg/kg/injection, schedule: Q01DX009 (ip), vehicle: distilled water + Tween-80); 120 % of control (dose: 6.25 mg/kg/injection, schedule: Q04DX002 (ip), vehicle: other); 108 % of control (dose: 10.0 mg/kg/injection, schedule: Q01DX001 (iv), vehicle: saline); 276 % of control (dose: 10.0 mg/kg/injection, schedule: Q01DX005 (ip), vehicle: saline); 151 % of control (dose: 10.0 mg/kg/injection, schedule: Q01DX005 (iv), vehicle: saline); 436 % of control (dose: 10.0 mg/kg/injection, schedule: Q01DX009 (ip), vehicle: acid diluted with saline). The T/C was 247 % of control (dose: 10.0 mg/kg/injection, schedule: Q01DX009 (ip), vehicle: distilled water + Tween-80); 185 % of control (dose: 10.0 mg/kg/injection, schedule: Q04DX003 (ip), vehicle: saline); 116 % of control (dose: 10.0 mg/kg/injection, schedule: Q04DX003 (iv), vehicle: saline); 259 % of control (dose: 19.4 mg/kg/injection, schedule: Q04DX003 (ip), vehicle: saline); 190 % of control (dose: 20.0 mg/kg/injection, schedule: Q01DX001 (ip), vehicle: saline); 116 % of control (dose: 20.0 mg/kg/injection, schedule: Q01DX001 (iv), vehicle: saline). Besides, the T/C by setting is: (dose: 20.0 mg/kg/injection, schedule: Q01DX005 (ip), vehicle: saline) 312 % of control; (dose: 20.0 mg/kg/injection, schedule: Q01DX005 (iv), vehicle: saline) 177 % of control; (dose: 20.0 mg/kg/injection, schedule: Q01DX009 (ip), vehicle: acid diluted with saline) 158 % of control; (dose: 20.0 mg/kg/injection, schedule: Q01DX009 (ip), vehicle: distilled water + Tween-80) 211 % of control; (dose: 20.0 mg/kg/injection, schedule: Q04DX003 (ip), vehicle: saline) 214 % of control; (dose: 25.0 mg/kg/injection, schedule: Q04DX002 (ip), vehicle: other) 116 % of control. Moreover, the T/C is, setting by setting: (dose: 25.0 mg/kg/injection, schedule: Q04DX002 (ip), vehicle: water) 198 % of control; (dose: 32.4 mg/kg/injection, schedule: Q04DX003 (ip), vehicle: saline) 211 % of control; (dose: 40.0 mg/kg/injection, schedule: Q01DX001 (ip), vehicle: saline) 205 % of control; (dose: 40.0 mg/kg/injection, schedule: Q01DX009 (ip), vehicle: acid diluted with saline) 150 % of control and 163 % of control; (dose: 40.0 mg/kg/injection, schedule: Q04DX003 (ip), vehicle: saline) 223 % of control; (dose: 50.0 mg/kg/injection, schedule: Q04DX002 (ip), vehicle: other) 103 % of control. Moreover, the T/C is, setting by setting: (dose: 50.0 mg/kg/injection, schedule: Q04DX002 (ip), vehicle: water) 261 % of control; (dose: 80.0 mg/kg/injection, schedule: Q01DX001 (ip), vehicle: saline) 178 % of control; (dose: 100.0 mg/kg/injection, schedule: Q04DX002 (ip), vehicle: water) 157 % of control and 161 % of control; (dose: 200.0 mg/kg/injection, schedule: Q04DX002 (ip), vehicle: water) 188 % of control.
In the case of `CS1=C2C(=O)CCCC2=Nc2ccccc21` (stereo not given), the T/C was 97 % of control under setting [3] and 100 % of control (dose: 100.0 mg/kg/injection, schedule: Q01DX005 (ip), vehicle: saline).
For the molecule `CCCCCCOC(=O)C1=C(NC)CCC1`, the T/C by setting is: under setting [4], 106 % of control; under setting [5], 119 % of control.
On to `COc1ccc(-n2nc3c(ccc4ccccc43)c2N)cc1`, for which the T/C reads like this: under setting [6], 94 % of control; under setting [7], 95 % of control; under setting [8], 94 % of control.
On to `COc1ccc(C(O)C/[N+]([O-])=C/c2ncc([N+](=O)[O-])n2C)cc1` (stereo not given), for which the T/C under setting [4] was 97 % of control; the T/C under setting [5] is 100 % of control; the T/C (dose: 200.0 mg/kg/injection, schedule: Q01DX009 (ip), vehicle: saline) is 106 % of control.
As for `Cc1cc(C)n2c(-c3ccccc3)c(C)c(C(N)=O)c2n1`, the T/C is, setting by setting: under setting [6], 98 % of control; under setting [7], 99 % of control; under setting [8], 100 % of control.
With `Cc1cccc(=O)[n-]1.Cc1cccc(=O)[n-]1.Cc1cccc(=O)[n-]1.Cc1cccc(=O)[n-]1.[Rh+2].[Rh+2]`, the T/C is 103 % of control (dose: 100.0 mg/kg/injection, schedule: Q04DX002 (ip), vehicle: Klucel (hydroxypropylcellulose) (HPC)); 102 % of control (dose: 200.0 mg/kg/injection, schedule: Q04DX002 (ip), vehicle: Klucel (hydroxypropylcellulose) (HPC)); 100 % of control (dose: 400.0 mg/kg/injection, schedule: Q04DX002 (ip), vehicle: Klucel (hydroxypropylcellulose) (HPC)).
As for `O=c1[nH]c2cc(Cl)ccc2nc1/C=C(\O)c1ccco1`, the T/C is, setting by setting: under setting [6], 102 % of control; under setting [7], 94 % of control; under setting [8], 102 % of control.
Consider `Nc1ncnc2c1c(-c1ccc(Cl)cc1)cn2-c1ccccc1`, for which the T/C is, setting by setting: under setting [6], 100 % of control; under setting [7], 96 % of control; under setting [8], 90 % of control.
On to `CC(N=Cc1ccccc1O)c1ccccc1.[CH-]=C([CH2-])C(C)(C)C.[Pd+2]` (stereo not given), for which the T/C runs as follows: (dose: 6.25 mg/kg/injection, schedule: Q04DX003 (ip), vehicle: Klucel (hydroxypropylcellulose) (HPC)) 108 % of control; (dose: 12.5 mg/kg/injection, schedule: Q04DX003 (ip), vehicle: Klucel (hydroxypropylcellulose) (HPC)) 93 % of control; (dose: 25.0 mg/kg/injection, schedule: Q04DX003 (ip), vehicle: Klucel (hydroxypropylcellulose) (HPC)) 92 % of control.
In the case of `COc1ccc(NCS(=O)(=O)O)cc1`, the T/C runs as follows: (dose: 100.0 mg/kg/injection, schedule: Q04DX003 (ip), vehicle: saline) 100 % of control; (dose: 200.0 mg/kg/injection, schedule: Q04DX003 (ip), vehicle: saline) 108 % of control; (dose: 400.0 mg/kg/injection, schedule: Q04DX003 (ip), vehicle: saline) 104 % of control.

The values above are taken from PubChem BioAssay AID330 (DTP/NCI, 2004).
